{"source": "patent US10092588B2", "about": "“Foamable compositions, breakable foams and their uses” (Foamix Pharmaceuticals Ltd., priority 2009, dated 2018)", "test": "Solubility of mometasone furoate in foam composition, visual inspection", "type": "physicochemical", "conditions": "in the hydro-alcoholic foam formulation", "data": [{"molecule": "C[C@@H]1C[C@H]2[C@@H]3CCC4=CC(=O)C=C[C@]4(C)[C@@]3(Cl)[C@@H](O)C[C@]2(C)[C@@]1(OC(=O)c1ccco1)C(=O)CCl", "note": "[Mometasone furoate]", "values": [{"measurement": "Solubility of Mometasone Furoate", "result": "soluble"}]}]}
